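Growth conditions: 96-well plates. Treatment: test compound, 48 hours, 5 concentrations. Analysis: linear interpolation between bracketing concentrations; unreached endpoints set to highest concentration. GI50 is the concentration that inhibits growth by half.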 Active and inactive are the calls of the source. No stated cut-off is given here; in the data, active = GI50 up to about 1.1 µM and inactive = higher.

Holding throughout (experiment): NCI-60 cell line screen, 48 h
The test system of test [1] is DLD-1.
Test [2] relates to HOP-18.
Test [3] deals with KM-20L2.
Test [4] relates to LXFL 529.
In test [5] the test system is RXF 631.
Test [6] deals with SNB-78.
The test system of test [7] is XF498.
Test [8] deals with DMS-114.

`COc1cc2c(c(OC)c1OC)-c1ccc(OC)c(=O)cc1[C@@H](N(C)C=O)CC2`: the GI50 is 0.0198 µM (active) in test [1]; > 100 µM (inactive) in test [2]; 0.0133 µM (active) in test [3]; < 0.0184 µM (active) in test [4]; 0.0244 µM (active) in test [5]; 0.0135 µM (active) in test [6]. In addition, the GI50 in test [7] was 0.112 µM (active).
In the case of `COC(=O)/C([Se]c1c(C)cc(C)cc1C)=C(/[Se]c1c(C)cc(C)cc1C)C(=O)OC`, the GI50 in test [1] was > 100 µM (inactive); in test [8], > 99.3 µM (inactive); in test [2], > 100 µM (inactive); in test [3] it was > 100 µM (inactive); in test [4], > 100 µM (inactive); in test [5], > 100 µM (inactive). For the same compound, the GI50 in test [6] was > 100 µM (inactive).
As for `CCOc1cccc2nc3cccc(C(=O)NCCN(C)C)c3nc12`, the GI50 in test [1] was 1.05 µM (active); in test [8], 1.03 µM (active); in test [2], 3.94 µM (inactive); in test [3], 1.27 µM (inactive); in test [4], 1.79 µM (inactive); in test [5], 2.6 µM (inactive). In addition, the results for the GI50 in test [6] and in test [7] were 1.88 µM (inactive) and 0.116 µM (active), respectively.
Regarding `COc1ccc(OC)c(NCC#N)c1`, the GI50 in test [8], in test [2], in test [3], in test [5] and in test [7] was > 100 µM (inactive) each time.
Take `C[P+]1(c2ccccc2)CCCCC1`: the GI50 in test [1] is > 100 µM (inactive); in test [8], > 100 µM (inactive); in test [2] it was 0.0484 µM (active); in test [3] it was > 100 µM (inactive); in test [4], > 100 µM (inactive); in test [5], > 100 µM (inactive). Also, in test [6], the GI50 is > 100 µM (inactive).
As to `C=CCCC12CCCC(=O)C1Sc1ccc3ccccc3c12` (configuration not stated), the GI50 in test [1] was 22.4 µM (inactive); in test [2], 19.7 µM (inactive); in test [4], 15.2 µM (inactive); in test [5] it was 11.6 µM (inactive); in test [6], 20.8 µM (inactive).
For the compound `OCC1OC(c2nc(C3=NCCCN3)cs2)C(O)C1O` (configuration not stated), the GI50 in test [1], in test [8], in test [2], in test [3], in test [4] and in test [5] was > 100 µM (inactive) throughout. The GI50 in test [6] and in test [7] was > 100 µM (inactive) throughout.
Regarding `O=c1c2cc(Br)ccc2nc(CCl)n1-c1ccc(O)c([N+](=O)[O-])c1`, the GI50 in test [1] was 17.7 µM (inactive); in test [3] it was 33 µM (inactive); in test [4] it was 20.9 µM (inactive); in test [5], > 10 µM (inactive); in test [6], 22.9 µM (inactive); in test [7], 15.4 µM (inactive).
For the compound `c1ccc2c(c1)N=C(c1ccc3ccccc3c1)CC(c1cccc3ccccc13)S2` (configuration not stated), the GI50 in test [1] was 11.6 µM (inactive); in test [8], 24.3 µM (inactive); in test [2], > 100 µM (inactive); in test [3], 43.5 µM (inactive); in test [4], 24.2 µM (inactive); in test [5], 34.4 µM (inactive). For the same compound, the GI50 in test [7] is 35 µM (inactive).
`COc1ccc(NC(=O)C2C(=O)N(c3ccc(OC)cc3)C(=O)/C2=N\N)cc1` (configuration not stated): the GI50 in test [1], in test [8], in test [2], in test [3], in test [4] and in test [5] was > 100 µM (inactive) throughout. Also, in test [6], the GI50 is > 100 µM (inactive).
As to `CCOC(=O)C1(Br)C(c2ccccc2)NC(=O)NC1(C)Br` (configuration not stated), the GI50 in test [1] was 55.7 µM (inactive); in test [8] it was 28.9 µM (inactive); in test [2] it was > 100 µM (inactive); in test [3], > 100 µM (inactive); in test [4] it was 92.5 µM (inactive); in test [5], 46.6 µM (inactive). In addition, the GI50 in test [6] was > 100 µM (inactive); in test [7], 52.2 µM (inactive).
For the compound `CC(=O)OCCOCNC(=S)N/N=C/c1ccc2ccccc2n1`, the GI50 in test [1] was 54.1 µM (inactive); in test [8] it was 22.6 µM (inactive); in test [2] it was 75.9 µM (inactive); in test [3], 19.5 µM (inactive); in test [4], 33.3 µM (inactive); in test [5] it was 55.6 µM (inactive). Also, the GI50 in test [6] and in test [7] was > 100 µM (inactive) throughout.
For `C=CCC1[C@@H](C(C)(C)C(C(C)=O)C(=O)C(=O)OC)OC(C(C)(C)C)N1C(=O)OC` (some centres not stated), the GI50 in test [1], in test [2], in test [3], in test [5], in test [6] and in test [7] was > 100 µM (inactive) throughout.
With `COc1cc(OC)c2c(c1)C(=O)C(CC1(C)OCCCO1)=CC2=O`, the GI50 in test [1] is 4.17 µM (inactive); in test [8] it was 6.11 µM (inactive); in test [2], 13 µM (inactive); in test [3], 14.1 µM (inactive); in test [4] it was 6.12 µM (inactive); in test [5] it was 22.3 µM (inactive). Moreover, the GI50 in test [6] is 7.96 µM (inactive); in test [7], 9.48 µM (inactive).

The values above are taken from ChEMBL document CHEMBL1201862, “PubChem BioAssay data set” (2004).
